Read-outs that look alike come from different tables or passages of the source.
Key:
[1] = molecular target: T1, human protein extracts (Mixed: HEK-293/ K-562/ Placenta/ Hep G2) (Homo sapiens, UniProt P08240); assay: Chemoproteomic profiling, MS/MS data for all quantified proteins (Table S1 E3); assay type: binding
T1 construct: endogenous in cells; host or cells: mixture of HEK-293, K-562, Hep G2 and placenta
Description: Human extracts were prepared as described ([Bantscheff et al., 2011]). Briefly, frozen cell pellets were homogenized in lysis buffer (50 mM Tris-HCl, 0.8% Igepal-CA630, 5% glycerol, 150 mM NaCl, 1.5 mM MgCl2, 25 mM sodium fluoride, 1 mM sodium vanadate, 1 mM DTT, pH 7.5). One cOmplete EDTA-free protease inhibitor tablet (Roche) was added per 25 ml. Samples were dispersed using a Dounce homogenizer, rotated for 30 min at 4°C, and centrifuged at 20,000g for 10 min at 4°C. Supernatants were then recentrifuged at 145,000g for 1 h at 4°C. Protein concentrations were determined using a Bradford assay (BioRad). Aliquots were snap frozen in liquid nitrogen and stored at −80°C.
Kinobeads were prepared by immobilizing Bis-(III) indolyl-maleimide, purvalanol B, staurosporine and CZC8004, and the analogs of PD173955, sunitinib and vandetanib on NHS-activated Sepharose 4 beads (Amersham) ([Bantscheff et al., 2007]). […] The chemoproteomic affinity-capturing experiments were performed as previously described ([Bantscheff et al., 2011]). Briefly, beads were washed and equilibrated in lysis buffer (50 mM Tris-HCl, pH 7.4, 0.4 % Igepal-CA630, 1.5 mM MgCl2, 5 % Glycerol, 150 mM NaCl, 25 mM NaF, 1 mM Na3VO4, 1 mM DTT, and one cOmplete EDTA-free protease inhibitor tablet (Roche) per 25 mL). […] 10 samples were measured in parallel (TMT 10-plex ([Werner et al., 2014])) to generate values for the affinity of the beads to the bound proteins (“depletion” values, 4 samples) and to generate IC50 values (6 samples) in a single experiment. Apparent dissociation constants were determined after accounting for protein depletion by the beads ([Bantscheff et al., 2011]). […]
Proteins were digested according to a modified single pot solid-phase sample preparation (SP3) protocol ([Hughes et al., 2014]). Peptides were labeled with isobaric mass tags (Thermo Fisher Scientific, Waltham, MA) using 10-plex TMT reagents, enabling relative quantification of 10 conditions in a single experiment ([Werner et al., 2014]). […]

[2] = system: early and late stage gametocytes (3D7elo1-pfs16-CBG99); assay: Gametocyte susceptibility, CBG99-luciferase assay; assay type: cell-based; settings: Plasmodium falciparum
Description: This was determined using two separate assays. The first involved MitoTracker staining and high-content imaging. Mature (stage V) gametocytes were generated from NF54 ABS cultures as described elsewhere ([Plouffe et al., 2016]). Briefly, asexual parasites were cultured at 5% hematocrit in O^+ human erythrocytes in serum-containing complete media (RPMI 1640 (Life Technologies), 0.05 mg/ml gentamicin (Life Technologies), 0.014 mg/ml hypoxanthine (Sigma), 38.4 mM HEPES (Sigma), 0.2% (w/v) sodium bicarbonate (Sigma), D-glucose 0.2% (w/v) (Sigma), 3.4 mM sodium hydroxide (Sigma), 4.3% (v/v) heat-inactivated human serum (O^+, Interstate Blood bank), and 0.2% (w/v) AlbuMAX® II (Life Technologies)). Parasites were cultured at 37 °C under low-oxygen conditions (3% O2, 5% CO2, 92% N2) and parasitemias were maintained between 0.5% and 3% in cultures with 5% hematocrit. Ring-stage parasites underwent three rounds of synchronization with 5% (w/v) D-Sorbitol (Sigma), on days -8, -6 and -4 relative to the day of initiating gametocyte production. Trophozoite-stage parasites were shaken overnight at 37°C until day -1. On day -2 only 50% of the media was exchanged to provide additional stress to cultures, whose parasitemias had typically attained 7-10%. Complete media exchange was performed daily from day -1 onwards. Stage V gametocytes were treated with 50 mM N-acetyl glucosamine (Sigma) on days 0-9. […] The second assay assessed gametocyte susceptibility using a luciferase-based assay with 3D7elo1-pfs16-CBG99 transgenic parasites ([Cevenini et al., 2014]). […] Cell viability was then evaluated by adding a non-lysing formulation of 0.5 mM D-Luciferin substrate and measuring luciferase activity for 0.5 s on a Varioskan™ Flash Multimode Reader (Thermo Scientific). The percent of viability was calculated as a function of drug concentration and IC50 values were derived by non-linear regression analysis and curve fitting (using GraphPad Prism 6.0).

T1 sequence (P08240 whole entry): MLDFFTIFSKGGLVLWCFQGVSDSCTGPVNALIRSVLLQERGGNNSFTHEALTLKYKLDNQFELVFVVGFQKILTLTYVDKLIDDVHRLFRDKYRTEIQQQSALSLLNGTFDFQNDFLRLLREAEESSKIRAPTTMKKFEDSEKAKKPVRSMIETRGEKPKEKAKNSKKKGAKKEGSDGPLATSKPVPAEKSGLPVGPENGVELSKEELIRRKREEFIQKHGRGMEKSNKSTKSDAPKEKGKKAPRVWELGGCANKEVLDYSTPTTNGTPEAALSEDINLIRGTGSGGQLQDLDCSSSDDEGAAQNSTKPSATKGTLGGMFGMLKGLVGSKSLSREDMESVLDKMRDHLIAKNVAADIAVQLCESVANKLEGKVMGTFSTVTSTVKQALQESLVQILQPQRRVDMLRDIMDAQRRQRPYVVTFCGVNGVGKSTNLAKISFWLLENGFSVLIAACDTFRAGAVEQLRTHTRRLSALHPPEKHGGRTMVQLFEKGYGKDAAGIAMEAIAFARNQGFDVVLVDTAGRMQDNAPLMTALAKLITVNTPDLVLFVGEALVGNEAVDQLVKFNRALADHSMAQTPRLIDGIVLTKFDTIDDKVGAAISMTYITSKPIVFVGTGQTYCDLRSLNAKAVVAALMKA

CC(C)(CN)c1nc(-c2ccc(Cl)c(O)c2)c(-c2ccncc2)[nH]1 [MMV030084]
IC50 [1]: ≥ 30 µM | IC50 ([2]; read-out: IC50, sexual gametocyte stage (Figure 1B)): > 37.5 µM | IC50 ([2]; CBG99-luciferase assay, 48 h, read-out: IC50, early stage gametocytes): > 40 µM | IC50 ([2]; CBG99-luciferase assay, 48 h, read-out: IC50, late stage gametocytes): > 40 µM
